Activity calls are given as the source filed them. How the calls were made is not given here.
Tested on: CCRIS mutagenicity, Ames/micronucleus/aberration tests
Assay: CCRIS mutagenicity studies
Conditions: Test System: AMES SALMONELLA TYPHIMURIUM, Method: STANDARD PLATE
[1] = Strain/Indicator: TA98, Metabolic Activation: NONE
[2] = Strain/Indicator: TA98, Metabolic Activation: RAT, LIVER, S-9, AROCLOR 1254

Row | SMILES | mutagenic call [1] | mutagenic call [2] | mutagenic call (Strain/Indicator: TA98, Metabolic Activation: RAT, LIVER, S-9, SODIUM PHENOBARBITAL) | mutagenic call (Strain/Indicator: TA100, Metabolic Activation: NONE) | mutagenic call (Strain/Indicator: TA100, Metabolic Activation: RAT, LIVER, S-9, AROCLOR 1254) | mutagenic call (Strain/Indicator: TA100, Metabolic Activation: RAT, LIVER, S-9, SODIUM PHENOBARBITAL) | mutagenic call (Strain/Indicator: TA1535, Metabolic Activation: NONE) | mutagenic call (Strain/Indicator: TA1535, Metabolic Activation: RAT, LIVER, S-9, AROCLOR 1254) | mutagenic call (Strain/Indicator: TA1535, Metabolic Activation: RAT, LIVER, S-9, SODIUM PHENOBARBITAL) | mutagenic call (Strain/Indicator: TA1537, Metabolic Activation: NONE) | mutagenic call (Strain/Indicator: TA1537, Metabolic Activation: RAT, LIVER, S-9, AROCLOR 1254) | mutagenic call (Strain/Indicator: TA1537, Metabolic Activation: RAT, LIVER, S-9, SODIUM PHENOBARBITAL) | mutagenic call (Strain/Indicator: TA1538, Metabolic Activation: NONE) | mutagenic call (Strain/Indicator: TA1538, Metabolic Activation: RAT, LIVER, S-9, AROCLOR 1254) | mutagenic call (Strain/Indicator: TA1538, Metabolic Activation: RAT, LIVER, S-9, SODIUM PHENOBARBITAL) | mutagenic call (Strain/Indicator: TA98(1,8-DNP6), Metabolic Activation: NONE) | mutagenic call (Strain/Indicator: TA98(1,8-DNP6), Metabolic Activation: RAT, LIVER, S-9, AROCLOR 1254) | mutagenic call (Strain/Indicator: YG1024, Metabolic Activation: NONE) | mutagenic call (Strain/Indicator: YG1024, Metabolic Activation: RAT, LIVER, S-9, AROCLOR 1254)
1 | C=C(C)C(=O)OCCCCCCOC(=O)C(=C)C | inactive; negative | inactive; negative | inactive; negative | inactive; negative | inactive; negative | inactive; negative | inactive; negative | inactive; negative | inactive; negative | inactive; negative | inactive; negative | inactive; negative | inactive; negative | inactive; negative | inactive; negative | – | – | – | –
2 | CC(=O)Nc1ccc2c(=O)c(=O)c3cccc4ccc1c2c43 | inactive; negative | active; positive | – | – | – | – | – | – | – | – | – | – | – | – | – | inactive; negative | active; positive | inactive; negative | active; positive

Source: PubChem BioAssay AID1259407 (Chemical Carcinogenesis Research Information System (CCRIS), 2018)
